Molecular target: T1, Factor XIIIa (activated FXIII) (Homo sapiens, UniProt P00488)
T1 construct: purchased Enzyme Research Laboratories, Ltd
T1 sequence (P00488 39-732 limits assumed): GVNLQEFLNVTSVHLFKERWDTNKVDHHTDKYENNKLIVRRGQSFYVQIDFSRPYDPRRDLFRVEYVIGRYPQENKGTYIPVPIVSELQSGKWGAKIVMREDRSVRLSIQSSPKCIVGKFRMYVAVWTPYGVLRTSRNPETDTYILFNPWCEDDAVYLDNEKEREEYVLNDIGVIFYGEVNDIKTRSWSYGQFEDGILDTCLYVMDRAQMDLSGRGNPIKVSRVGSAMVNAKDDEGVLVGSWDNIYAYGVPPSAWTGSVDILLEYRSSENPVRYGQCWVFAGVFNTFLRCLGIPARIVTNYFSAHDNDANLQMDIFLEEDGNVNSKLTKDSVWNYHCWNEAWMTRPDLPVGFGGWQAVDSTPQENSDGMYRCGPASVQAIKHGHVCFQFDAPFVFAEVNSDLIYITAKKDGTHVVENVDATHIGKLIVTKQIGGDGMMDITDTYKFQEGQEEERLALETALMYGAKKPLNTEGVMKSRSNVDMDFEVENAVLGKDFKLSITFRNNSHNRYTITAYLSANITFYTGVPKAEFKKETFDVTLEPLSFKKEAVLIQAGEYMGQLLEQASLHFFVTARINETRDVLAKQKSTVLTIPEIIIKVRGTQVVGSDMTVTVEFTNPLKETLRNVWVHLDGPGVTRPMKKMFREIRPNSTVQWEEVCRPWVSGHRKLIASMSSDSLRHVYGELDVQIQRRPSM
Assay: Inactivation of purified Factor XIIIa (monodansylcadaverine incorporation into dimethylcasein, fluorescence)
Assay type: biochemical
Conditions: for IC50: purified activated FXIII, 50% enzyme inactivation after 5-min incubation with inhibitor at 37° C. in the absence of substrate, read-out: FXIIIa (IC50 in μM)
Protocol: FXIII (0.5 mg/mL, Enzyme Research Laboratories, Ltd.) in 50 mM Tris-HCl pH 7.5 containing 100 mM NaCl, 40 mM CaCl2, 1 mM EDTA and 0.1% poly(ethylene glycol) (app. MW=8000) was activated by incubation with 10 NIH units/mL of human thrombin (Calbiochem) at 37° C. for 20 min. Thrombin was quenched with 20 NIH units/mL of hirudin from Leech (Sigma).
Inhibitor solution in DMSO (14 μL) was added to 120 μL of 250 mM Tris-Cl pH 7.5 containing 40 mM CaCl2 and 1 mM EDTA and the solution was incubated at 37° C. for two minutes. Activated FXIII (5 μL, 0.5 mg/mL) was added and the mixture was incubated at 37° C. for 5 min.
An assay mixture composed of 50 mM Tris-Cl pH 8.0, 10 mM CaCl2, 1 mM EDTA, 0.1% poly(ethylene glycol) (app. MW=1000) and 20 μM monodansylcadaverine was prepared in a spectrofluorometric cell in a final volume of 2880 μL. Dimethylcasein (8 μL, 1% in 50 mM sodium phosphate pH 7.5) was added and the solution was incubated at 37° C. for a few minutes. To assay the residual enzyme activity, 120 μL of the solution containing the enzyme and the inhibitor was transferred to the assay mixture. The covalent incorporation of monodansylcadaverine into casein was monitored by an increase in fluorescence at λexc=360 nm and λem=500 nm as previously described (Curtis, C. G.; Lorand, L. Methods Enzymol. 1976, 45, 177-191). To determine uninhibited enzyme activity, DMSO was used in place of inhibitor solution in the above assay. IC50 were determined by plotting the percent of remaining enzyme activity against logarithm of inhibitor concentration. IC50 is defined here as an inhibitor concentration resulting in 50% enzyme inactivation after 5-min incubation of the enzyme with the inhibitor in the absence of the substrate. Second order rate constants for inactivation were determined using method described by Kitz and Wilson (Kitz, R.; Wilson, I. J. Biol. Chem. 1962, 237, 3245).

Molecule | IC50 [µM] | kinact/KI (purified Factor XIIIa, method of Kitz and Wilson, read-out: Second order rate constant for inactivation) [M⁻¹ s⁻¹]
4-benzyl-{N^ε-imidazo[1,2-d][1,2,4]thiadiazol- 3-yl-N^α-[(4- methylphenyl)sulfonyl]lysyl}piperidine | 5.6 | –
NC(=O)CN(CCCCCCNc1nsc2nccn12)S(=O)(=O)c1cccc2ccccc12 [1 / NH2 / 1-naphthyl, N^2-[6-(imidazo[1,2-d][1,2,4]thiadiazol-3-ylamino)hexyl]-N^2-(1-naphthylsulfonyl)glycinamide] | 6 | –
CCOC(=O)CN(CCCCCCNc1nsc2nccn12)S(=O)(=O)c1cccc2ccccc12 [1 / OEt / 1-naphthyl, Ethyl N-[6-(imidazo[1,2-d][1,2,4]thiadiazol-3-ylamino)hexyl]-N-(1-naphthylsulfonyl) glycinate] | 7.4 | –
O=C(O)CN(CCCCCCNc1nsc2nccn12)S(=O)(=O)c1cccc2ccccc12 [1 / OH / 1-naphthyl, N-[6-(imidazo[1,2-d][1,2,4]thiadiazol-3-ylamino)hexyl]-N-(1-naphthylsulfonyl)glycine] | 6.8 | –
NC(=O)CCN(CCCCCCNc1nsc2nccn12)S(=O)(=O)c1ccc(F)cc1F [2 / NH2 / 2-F-4-F-Ph, N^3-[(2,4-difluorophenyl)sulfonyl]-N^3-[6-(imidazo[1,2-d][1,2,4]thiadiazol-3-ylamino)hexyl]-β-alaninamide] | 8.9 | –
CCOC(=O)CCN(CCCCCCNc1nsc2nccn12)S(=O)(=O)c1ccc(F)cc1F [2 / OEt / 2-F-4-F-Ph, Ethyl N-[(2,4-difluorophenyl)sulfonyl]-N-[6-(imidazo[1,2-d][1,2,4]thiadiazol-3-ylamino)hexyl]-β-alaninate] | 6.8 | –
Cc1cc(C)c(S(=O)(=O)NCCCCCCNc2nsc3nccn23)c(C)c1 [2,4,6-TriMe-Ph, N-[6-(imidazo[1,2-d][1,2,4]thiadiazol-3-ylamino)hexyl]-2,4,6-trimethylbenzenesulfonamide] | 1.3 | –
O=S(=O)(NCCCCCCNc1nsc2nccn12)c1ccc(Br)cc1Br [2,4-dibromo-N-[6-(imidazo[1,2-d][1,2,4]thiadiazol-3-ylamino)hexyl]benzenesulfonamide] | – | 13000
N#Cc1ccccc1S(=O)(=O)NCCCCCCNc1nsc2nccn12 [2-CN-Ph, 2-cyano-N-[6-(imidazo[1,2-d][1,2,4]thiadiazol-3-ylamino)hexyl]benzenesulfonamide] | 2.7 | –
NC(=O)c1ccccc1S(=O)(=O)NCCCCCCNc1nsc2nccn12 [2-CONH2-Ph, 2-({[6-(imidazo[1,2-d][1,2,4]thiadiazol-3-ylamino)hexyl]amino}sulfonyl)benzamide] | 3 | –
CNC(=O)c1ccccc1S(=O)(=O)NCCCCCCNc1nsc2nccn12 [2-CONHMe-Ph, 2-({[6-(imidazo[1,2-d][1,2,4]thiadiazol-3-ylamino)hexyl]amino}sulfonyl)-N-methylbenzamide] | 13.8 | –
O=C(O)c1ccccc1S(=O)(=O)NCCCCCCNc1nsc2nccn12 [2-COOH-Ph, 2-carboxy-N-[6-(imidazo[1,2-d][1,2,4]thiadiazol-3-ylamino)hexyl]benzenesulfonamide] | 6.8 | –
COC(=O)c1ccccc1S(=O)(=O)NCCCCCCNc1nsc2nccn12 [2-COOMe-Ph, N-[6-(imidazo[1,2-d][1,2,4]thiadiazol-3-ylamino)hexyl]2-methoxycarbonylbenzenesulfonamide] | 3.2 | –
O=S(=O)(NCCCCCCNc1nsc2nccn12)c1ccc(F)cc1Cl [2-Cl-4-F-Ph, 2-chloro-4-fluoro-N-[6-(imidazo[1,2-d][1,2,4]thiadiazol-3-ylamino)hexyl]benzenesulfonamide] | 0.6 | –
O=S(=O)(NCCCCCCNc1nsc2nccn12)c1c(F)ccc(Br)c1F [2-F-3-Br-6-F-Ph, 3-bromo-2,6-difluoro-N-[6-(imidazol[1,2-d][1,2,4]thiadiazol-3-ylamino)hexyl]benzenesulfonamide] | 2.1 | –
COc1cc(C)c(S(=O)(=O)NCCCCCCNc2nsc3nccn23)c(C)c1C [2-Me-3-Me-4-OMe-6-Me-Ph, N-[6-(imidazo[1,2-d][1,2,4]thiadiazol-3-ylamino)hexyl]-4-methoxy-2,3,6-trimethylbenzenesulfonamide] | 14 | –
